Molecules are shown by their SMILES.

Assay [1] deals with primary bone marrow-derived macrophages (BMDMs). Nature of the assay: NAD+ measurement in macrophages after LPS/ATP. The class given is cell-based, C57BL/6 mouse. The following applies: LPS/ATP + 1, 5, 10 μM compound. Here is the method: The primary bone marrow-derived macrophages (BMDMs) isolated from C57BL/6 mouse were incubated in DMEM medium involving macrophage colony-stimulating factor (M-CSF; R&D Systems, 416-ML) during 3 to 5 days. NAD^+ production and NAD^+/NADH ratio were measured in isolated BMDMs through using NAD/NADH Assay Kit(ab65348) supplied by Abcam company. All assays were performed according to the manufacturer's product manual.
FIGS. 1 to 5 show NAD^+ changes in the macrophage when treated with compounds 6, 16, 17, 22 and 27 respectively (in order from left in the figure: Untreatment, LPS/ATP, LPS/ATP+1 μM compound, LPS/ATP+5 μM compound, and LPS/ATP+10 μM compound).

Assay [2] shares this test system. Description: NAD+/NADH measurement in macrophages after LPS/ATP. The class given is cell-based, C57BL/6 mouse. The following applies: LPS/ATP + 1, 5, 10 μM compound. Here is the method:
The primary bone marrow-derived macrophages (BMDMs) isolated from C57BL/6 mouse were incubated in DMEM medium involving macrophage colony-stimulating factor (M-CSF; R&D Systems, 416-ML) during 3 to 5 days. NAD^+ production and NAD^+/NADH ratio was measured in isolated BMDMs through using NAD/NADH Assay Kit(ab65348) supplied by Abcam company. All assays were performed according to the manufacturer's product manual.
FIGS. 6 to 10 show NAD^+/NADH ratio changes in the macrophage when treated with compounds 6, 16, 17, and 27 respectively (in order from left in the figure: Untreatment, LPS/ATP, LPS/ATP+1 μM compound, LPS/ATP+5 μM compound, and LPS/ATP+10 μM).

For another assay, the target named is NQO1 (Homo sapiens, UniProt P15559). Description: In vitro NQO1 enzyme activity assay (cytochrome C reduction). The class given is biochemical. The following applies: NQO1 2 ng, Compound 0.2 μM. Here is the method:
In order to evaluate the enzymatic activities of compounds on NQO1, the experiments were performed as follows:
A compound to measure NQO1 enzyme activity was dissolved in DMSO to prepare a 10 mM stock solution, which was then diluted with DMSO to prepare a working solution at a concentration of 250 μM. For an enzyme reaction solution, 50 μL of 1.54 mM cytochrome C solution was added to 900 μL of 50 mM Tris-HCl (pH 7.5) solution containing 0.14% BSA, and then the prepared working solution at 250 μM was added. After adding 20 μL of 100 ng/ml NQO1 protein, […] solution was added so as to adjust the total volume to 1 mL, and then the change of absorbance was measured at 550 nm for 10 minutes. The change of absorbance was measured at 550 nm for 10 minutes using 1 mL cuvette. The reaction rate was observed through the increase in absorbance as cytochrome C was reduced at 550 nm for 10 minutes, to obtain an absorbance value, and the activity for NQO1 was measured as the reduced amount of cytochrome C (nmol reduced cytochrome C/min/μg NQO1 protein).
Absorption coefficient of Cytochrome C: 21.1 (μmol/mL)-1 cm^−1
Equipment=Cary 100 UV-Vis Spectrophotometer

Assay [3] relates to primary bone marrow-derived macrophages (BMDMs). Nature of the assay: OCR (oxygen consumption rate) measurement, Seahorse XF24. The assay is classed as cell-based, C57BL/6 mouse. The following applies: macrophages after treatment of LPS and ATP. Here is the method: The primary bone marrow-derived macrophages (BMDMs) isolated from C57BL/6 mouse were incubated in DMEM medium involving macrophage colony-stimulating factor (M-CSF; R&D Systems, 416-ML) during 3 to 5 days. OCR was measured using Seahorse XF24 Extracellular Flux Analyzer in isolated bone marrow-derived macrophages.

Assay [4] has the same test system. Nature of the assay: ATP measurement in LPS-activated macrophages. Particulars: LPS + 1, 5, 10 μM compound. The assay is classed as cell-based, C57BL/6 mouse. Here is the method: The primary bone marrow-derived macrophages (BMDMs) isolated from C57BL/6 mouse were incubated in DMEM medium involving macrophage colony-stimulating factor (M-CSF; R&D Systems, 416-ML) during 3 to 5 days. ATP content in the cell was measured through using ATP colorimetric/fluorometric kit after activation of macrophages by treatment of 100 ng/mL LPS in DMEM medium including […]. All assays were performed according to the manufacturer's product manual.
FIGS. 13 to 17 show the measurement of ATP amounts in the macrophage when treated with Compounds 6, 16, 17, 22 and 27 respectively (in order from left in the figure: Untreatment, LPS/ATP, LPS/ATP+1 μM compound, LPS/ATP+5 μM compound, and LPS/ATP+10 μM compound).

Assay [5] shares this test system. Nature of the assay: Mitochondrial reactive oxygen species measurement (MitoSox, FACS). The following applies: LPS/ATP + 1, 5, 10 μM compound. The class given is cell-based, C57BL/6 mouse. How it is done:
The primary bone marrow-derived macrophages (BMDMs) isolated from C57BL/6 mouse were incubated in DMEM medium involving macrophage colony-stimulating factor (M-CSF; R&D Systems, 416-ML) during 3 to 5 days. Isolated BMDMs were stained by 1 μM MitoSox (Molecular Probes M36008) for 15 min. After washing the cells into PBS and collecting the cells, mitochondrial reactive oxygen species was measured by FACS.
FIGS. 11 and 12 show mitochondrial reactive oxygen species changes in the macrophage when treated with compounds 6 and 27, respectively (in order from left in the figure: Untreatment, LPS/ATP, LPS/ATP+1 μM compound, LPS/ATP+5 μM compound, and LPS/ATP+10 μM compound).

For assay [6], the system named is DSS-induced acute colitis mouse model. Description: Efficacy in ulcerative colitis mouse model (DSS-induced acute colitis). The following applies: 5% DSS for 6 days. The assay is classed as in vivo, C57BL/6 female mouse. Here is the method:
DSS-induced acute colitis mouse model was prepared using 6-week-old C57BL/6 female mouse in the following method from Opal S M et al., Jama., 309(11):1154-1162(2013) and Hotchkiss R S et al., Journal of immunology., 176(9):5471-5477(2006).
The clinical score in colitis were measured daily for body weight, rectal bleeding, total bleeding loss, and fecal concentration during colitis induction.
For immunohistochemistry of tissue section, mouse spleen, lung and colon were fixed using 10% formalin and embedded in paraffin. Paraffin sections were cut to a thickness of 4 μm, and H&E(hematoxylin and eosin) staining was performed. The histopathological score was measured in accordance with the criteria described in Osuchowski M F, et al., Journal of Immunology, 177(3):1967-74(2006); and Liu W, et al., Cell Research, 25(6): 691-706(2015).
The sandwich ELISAs and MPO assay were performed according to conventional methods in this field. TNF-α, IL-6, IL-1β, IL-18 ELISA(sandwich ELISAs) were performed using BD OptEIA ELISA Kit and MPO assay was performed using MPO Activity assay kit(ab105136) of Abcam company.
The data obtained from independent experiment (means±SD) was analyzed by using two-tailed Student's t-test. The differences were considered significant in p<0.05. For survival comparison, the results were graphically described and analyzed according to kaplan-Meier survival analysis, that is, the product-limit method, using log-rank(Mantel-Cox) tests (Prism, version 5.0, GraphPad Software).

The mark [7] stands for this setting: colon tissue homogenate, treated during 20 days.
Where [8] appears, read: treated during 10 days, vs non-treated mouse.

NQO1, sequence (P15559 whole entry, species assumed): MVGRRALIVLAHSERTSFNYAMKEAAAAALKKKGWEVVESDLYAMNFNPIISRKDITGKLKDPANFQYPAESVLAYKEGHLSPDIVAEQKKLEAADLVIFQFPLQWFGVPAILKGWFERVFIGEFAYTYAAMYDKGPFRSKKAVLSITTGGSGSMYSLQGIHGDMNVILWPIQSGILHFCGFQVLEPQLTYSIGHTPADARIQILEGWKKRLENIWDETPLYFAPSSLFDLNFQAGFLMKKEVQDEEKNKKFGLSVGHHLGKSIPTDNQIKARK

As for `CC(C)c1nc2c([nH]1)C(=O)C(=O)c1ccccc1-2` [Compound 27], the “NAD+ production” value in assay [1] was “increased in dose-dependent manner”. The “NAD+/NADH ratio” value in assay [2] is listed as “increased in dose-dependent manner”. Further, the “NQO1 Activity” value on NQO1 is reported as 2269 nmol of reduced Cytochrome C/min/μg NQO1 Protein. For the same compound, the “overall mitochondrial OCR” value in assay [3] is listed as “increased”. For the same compound, in assay [4], the ATP amounts result is listed as “increased in dose-dependent manner”. In addition, in assay [5], the “mitochondrial reactive oxygen species amounts” value is “decreased in dose-dependent manner”. Also, in assay [6] (setting [7]), the MPO activity result is reported as “decreased”; the “cytokine expressions (TNF-α, IL-6, IL-1β and IL-18, ELISA)” value is recorded as “decreased”; the “expressions of sirtuin 1 and sirtuin 7” value is on record as “significantly increased”. In addition, in assay [6] (treated during 7 days, vs non-treated colon tissue), the “histological finding of colon tissue (immunohistochemistry, histological score, H&E)” value is recorded as “significantly improved than non-treated colon tissue”. Moreover, in assay [6] (setting [8]), the “colitis clinic scores (body weight, stool consistency, bleeding combined)” value is given as “significantly ameliorated compared with non-treated mouse” and the “degree of body weight loss” value was “significantly slower than non-treated mouse”. Besides, the survival rates result in assay [6] (treated during 20 days, vs non-treated mouse) is reported as “higher than non-treated mouse”.

The values above are taken from patent US20220354825A1, “PHARMACEUTICAL COMPOSITION FOR PREVENTION OR TREATMENT OF INFLAMMATORY DISEASES COMPRISING NAPHTHOQUINONE DERIVATIVE” (LMITO THERAPEUTICS INC., priority 2019, published 2022).
